Results published in US10907168B2, “Jasmonic acid pathway activator” (MEDICAGO INC., priority 2015, dated 2021).

Tested on: N. benthamiana leaves
Assay: Leaf protein profile, Coomassie blue-stained SDS-PAGE and MS/MS identification
Format: in vivo, Nicotiana benthamiana
Settings: uninfiltrated leaves; ~30-kDa, ~25-kDa and ~6-kDa mass ranges; seven days post-treatment
Procedure: Forty-two day-old N. benthamiana plants grown in greenhouse were used for the experiments. Each plant was sprayed evenly with 50 ml of 0.5 mM, 1 mM or 2 mM MeJA in water containing 0.1% (v/v) Triton X-100 (Sigma-Aldrich, Mississauga ON, Canada), or with 50 ml of 1 mM arachidonic acid (Girard et al., 2007) in the same solvent, and transferred for seven days in a Conviron growth chamber (Conviron, Winnipeg MB, Canada). Plants sprayed with 50 ml of 0.1% (v/v) Triton X-100 in water were used in parallel as negative controls to avoid confounding effects due to experimental conditions. […]
Whole leaf proteins were extracted from three 1-cm^2 leaf discs in 400 μl of ice-cold 50 mM Tris-HCl, pH 7.5, containing 150 mM NaCl, by disrupting the leaf samples with tungsten carbide beads (Qiagen, Mississauga ON, Canada) in a Mini-Beadbeater apparatus (BioSpec, Bartlesville Okla., USA). […] RuBisCO small subunit was detected using polyclonal IgG raised in rabbit against a synthetic small subunit peptide (Agrisera, Vännäs, Sweden) and alkaline phosphatase-conjugated goat anti-rabbit IgG as secondary antibodies (Sigma-Aldrich). RuBisCO large subunit was detected using polyclonal IgG raised in hen against a synthetic large subunit peptide (Agrisera) and alkaline phosphatase-conjugated goat anti-chicken IgG as secondary antibodies (Sigma-Aldrich). […]

**Q.** Which “up-regulation of proteins on Coomassie blue-stained gels” value does the source give for CC/C=C\C[C@H]1C(=O)CC[C@@H]1CC(=O)OC [MeJA, methyl jasmonate] here?
**A.** up-regulation of several proteins
